{"source": "patent US20130252983A1", "about": "“ACTIVATING PHOSPHORYLATION SITE ON GLUTAMINASE C” (CORNELL UNIVERSITY, priority 2010, published 2013)", "key": {"[1]": {"tested_on": "GA activity of MDA-MB231 cells", "test": "GA activity in mitochondrial fractions of treated MDA-MB231 cells", "type": "cell-based, human", "details": "10 μM, 48 hours", "description": "(§1) 100%=620 moles of glutamine hydrolyzed per minute per mole of enzyme. Data represent the average of 3 experiments (±s.d.). […] Following precipitation of the beads and re-suspension, the samples were analyzed by Western blotting with anti-V5 antibody. […] Data represent the average of 3 experiments (±s.d.). […] Data represent the average of 3 experiments (±s.d.). […] Data represent the average of 3 experiments (±s.d.). FIG. 3E NIH 3T3 cells transiently expressing Dbl were assayed for focus formation in the presence of 10 μM 968 alone or together with 7 mM dimethyl α-ketoglutarate. […] 100%=680 nM glutamine hydrolyzed per minute per 10^5 cells. Data are the average of 3 experiments (±s.d.). […] 100%=750 nM glutamine hydrolyzed per minute per 10^5 cells. Data represent the average of 3 experiments (±s.d.).\nMitochondrial preparations were obtained using the mitochondria isolation kit from QIAGEN (Cat #37612). A suspension containing 2×10^7 cells was transferred into a 50 ml conical tube and centrifuged at 500×g for 10 minutes at 4° C. The pellets were resuspended in 2 ml of ice-cold lysis buffer (supplied by QIAGEN) and incubated for 10 minutes at 4° C. using an end-over-end shaker. […]"}, "[2]": {"tested_on": "NIH 3T3 cells stably expressing Cdc42(F28L), Rac(F28L), RhoC(F30L)", "test": "Invasion through growth factor-reduced Matri-gel", "type": "cell-based, mouse", "details": "10 μM, 24 hours", "description": "(§2) FIGS. 2A-G illustrate effects of 968 on the transforming activity of constitutively active Rho GTPases and human breast cancer cells. […] Cells were scored after 14 days and plotted as the percentage of the total number of colonies greater than 50 μm in diameter. Data represent the average of 3 experiments (±s.d.). […] Data represent the average of 3 experiments (±s.d.). […] Data represent the average of 3 experiments (±s.d.). […] After 24 hours at 37° C., the migratory cells were fixed, stained with GIEMSA, and counted. Data represent the average of 3 experiments (±s.d.). […] Data represent the average of 3 experiments (±s.d.). […] Data represent the average of 3 experiments (±s.d.). […] Data represent the average of 3 experiments (±s.d.)."}, "[3]": {"tested_on": "GACΔC (C-terminal truncation mutant of GAC)", "test": "Glutaminase activity of immunoprecipitated GACΔC from treated Dbl-transformed cells", "type": "cell-based, mouse", "details": "10 μM, 48 hours"}, "SKBR3 cells": {"tested_on": "SKBR3 cells", "test": "Growth to high density and in low serum, SKBR3", "type": "cell-based, human", "details": "10 μM", "description": "as §2\n100%=620 moles of glutamine hydrolyzed per minute per mole of enzyme. Data represent the average of 3 experiments (±s.d.). […] Following precipitation of the beads and re-suspension, the samples were analyzed by Western blotting with anti-V5 antibody. […] Data represent the average of 3 experiments (±s.d.). […] Data represent the average of 3 experiments (±s.d.). […] Data represent the average of 3 experiments (±s.d.). FIG. 3E NIH 3T3 cells transiently expressing Dbl were assayed for focus formation in the presence of 10 μM 968 alone or together with 7 mM dimethyl α-ketoglutarate. […] 100%=680 nM glutamine hydrolyzed per minute per 10^5 cells. […]"}, "[4]": {"tested_on": "GA activity of SKBR3 cells", "test": "GA activity in mitochondrial fractions of treated SKBR3 cells", "type": "cell-based, human", "details": "10 μM, 48 hours", "description": "as §1\nFIGS. 4A-E illustrate the role of glutaminase C activity in cellular transformation. […] Data represent the average of 3 experiments (±s.d.). […] Data represent the average of 3 experiments (±s.d.). […] 100% represents the activity measured in untreated Dbl-transformed cells. The data represent the average of 2 experiments. […] 100% represents the activity measured in untreated SKBR3 cells. The data represent the average of 2 experiments. […] Data represent the average of 3 experiments (±s.d.).\nFIGS. 11A-E illustrate the effects of different treatments on GA activity. […] The addition of Pi stimulated the GA activity in control 3T3 cells, Dbl-expressing cells, and Cdc42(F28L)-expressing cells by ˜6-fold, 2-fold, and 3-fold, respectively. 100% represents the Pi-stimulated activity measured for Dbl-transformed cells that were not treated with 968. Data is the average of 3 experiments (±s.d.). […] The addition of Pi stimulated the GA activity of HMECs, MDA-MB231 cells, and SKBR3 cells by ˜5-fold, 2-fold, and 1.4-fold, respectively. […] The data are plotted as the percentage of GA activity measured for untreated SKBR3 cells and represent the average of 2 experiments. […] 100% represents the Pi-stimulated activity measured for untreated Dbl-transformed cells. […]"}}, "data": [{"smiles": "CN(C)c1ccc(C2Nc3ccc4ccccc4c3C3=C2C(=O)CC(C)(C)C3)cc1Br", "note": "(stereo not drawn) [Compound 968, 5-[3-bromo-4-(dimethylamino)phenyl]-2,2-dimethyl-2,3,5,6-tetrahydrobenzo[a]]", "values": [{"measurement": "basal GA activity", "setting": "[1]", "result": "sensitive to 968"}, {"measurement": "invasive activity", "setting": "[2]", "result": "inhibiting their invasive activity"}, {"measurement": "basal activity of GACΔC", "setting": "[3]", "result": "not further reduced"}, {"measurement": "growth in low serum", "setting": "SKBR3 cells; 1% fetal bovine serum", "result": "inhibits their growth"}, {"measurement": "growth to high density", "setting": "SKBR3 cells; 10% fetal bovine serum, 6 days", "result": "inhibits their growth"}, {"measurement": "basal GA activity", "setting": "[4]", "result": "sensitive to 968"}]}]}
